The structures appear in SMILES notation. Values joined by “and” are separate entries in the source; they are usually repeats but may differ in a detail not shown here. Identical values can stand only once.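 Test compounds were applied to cells in 96-well plates for 48 hours at 5 doses. GI50 = concentration required for 50% inhibition of growth. At the TGI there is no net growth.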 A value given as a limit tells only on which side of the number the result lay.

Some test systems named below: CAKI-1 renal; OVCAR-8 ovarian; SK-MEL-5 melanoma; MDA-MB-231 breast; OVCAR-3 ovarian; SK-MEL-28 melanoma; UO-31 renal; HT29 colon; A549 NSCLC; COLO 205 colon.
What all share (test): NCI tumour cell line growth inhibition, 48 h

As to `CO[C@H](C(=O)O)[C@@H]1Cc2cc3cc(OC4CC(OC5CC(O)C(O)C(C)O5)C(O)C(C)O4)c(C)c(O)c3c(O)c2C(=O)[C@H]1OC1CC(OC2CC(OC3CC(C)(O)C(O)C(C)O3)C(O)C(C)O2)C(O)C(C)O1` (some centres undefined), the GI50 in the experiment on CAKI-1 renal is 0.598 µM; in the experiment with OVCAR-8 ovarian, 0.284 µM; in the experiment on SK-MEL-5 melanoma, 0.159 µM; with MDA-MB-231 breast it was 0.553 µM; with OVCAR-3 ovarian it was 0.28 µM; in the experiment on SK-MEL-28 melanoma it was 0.191 µM. Besides, the GI50 is 0.637 µM in the experiment with UO-31 renal, 0.305 µM in the experiment on HT29 colon, 0.257 µM with A549 NSCLC and 0.285 µM in the experiment with COLO 205 colon. Further, the TGI was greater than 32.5 µM with CAKI-1 renal; greater than 32.5 µM in the experiment with OVCAR-8 ovarian; 0.868 µM in the experiment on SK-MEL-5 melanoma; greater than 32.5 µM with MDA-MB-231 breast; 2.04 µM with OVCAR-3 ovarian; 1.99 µM with SK-MEL-28 melanoma. The TGI in the experiment with UO-31 renal was 5.33 µM; in the experiment on HT29 colon it was greater than 32.5 µM; with A549 NSCLC, greater than 32.5 µM; with COLO 205 colon, 2.57 µM.
Consider `Oc1ccc(Cl)cc1-c1cc(-c2ccc(F)cc2)n[nH]1`, for which the GI50 is 1.77 µM with CAKI-1 renal; 1.85 µM in the experiment on OVCAR-8 ovarian; 1.93 µM with SK-MEL-5 melanoma; 1.19 µM in the experiment with MDA-MB-231 breast; 1.39 µM in the experiment on OVCAR-3 ovarian; 8.35 µM in the experiment with SK-MEL-28 melanoma. Also, the GI50 was 1.21 µM in the experiment with UO-31 renal, 3.99 µM in the experiment with HT29 colon, 2.11 µM in the experiment on A549 NSCLC and 2.08 µM in the experiment on COLO 205 colon. Besides, the TGI in the experiment with CAKI-1 renal is 9.14 µM; in the experiment with OVCAR-8 ovarian it was 5.39 µM; with SK-MEL-5 melanoma, 5.55 µM; in the experiment on MDA-MB-231 breast it was 4.35 µM; with OVCAR-3 ovarian, 3.53 µM; with SK-MEL-28 melanoma, greater than 100 µM. For the same molecule, the TGI in the experiment on UO-31 renal was 3.78 µM; with HT29 colon, 22.2 µM; in the experiment with A549 NSCLC, 7.2 µM; in the experiment with COLO 205 colon it was 4.85 µM.
`COc1cc2c(cc1OC)-c1ncc3cc4c(cc3c1C2)OCO4`: the GI50 is 38.5 µM in the experiment on CAKI-1 renal; 47.3 µM in the experiment with OVCAR-8 ovarian; 7.65 µM in the experiment with SK-MEL-5 melanoma; greater than 100 µM with MDA-MB-231 breast; 61.2 µM in the experiment on OVCAR-3 ovarian; greater than 100 µM in the experiment with SK-MEL-28 melanoma. Moreover, the GI50 was 23.1 µM in the experiment with UO-31 renal, greater than 100 µM in the experiment on HT29 colon, 34.2 µM in the experiment with A549 NSCLC and 61.1 µM in the experiment on COLO 205 colon. Also, the TGI with CAKI-1 renal, with OVCAR-8 ovarian, in the experiment with SK-MEL-5 melanoma, in the experiment with MDA-MB-231 breast, with OVCAR-3 ovarian and in the experiment on SK-MEL-28 melanoma was greater than 100 µM throughout. Besides, the TGI in the experiment on UO-31 renal is 63.7 µM; with HT29 colon, greater than 100 µM; with A549 NSCLC it was greater than 100 µM; in the experiment on COLO 205 colon, greater than 100 µM.
With `CN(C)CCNc1nc2ccccc2c2c(=O)c3ccccc3sc12`, the GI50 in the experiment on CAKI-1 renal is 3.11 µM; with OVCAR-8 ovarian, 2.36 µM; in the experiment on SK-MEL-5 melanoma it was 1.58 µM; in the experiment on MDA-MB-231 breast, 1.34 µM; in the experiment on OVCAR-3 ovarian, 2.06 µM; with SK-MEL-28 melanoma it was 2.08 µM. Besides, the GI50 in the experiment on UO-31 renal is 1.08 µM; with HT29 colon, 1.8 µM; with A549 NSCLC, 1.81 µM; in the experiment on COLO 205 colon it was 1.44 µM. The TGI was determined as 14.5 µM with CAKI-1 renal; 6.92 µM in the experiment on OVCAR-8 ovarian; 3 µM in the experiment on SK-MEL-5 melanoma; 3.64 µM in the experiment on MDA-MB-231 breast; 5.46 µM with OVCAR-3 ovarian; 3.98 µM with SK-MEL-28 melanoma. Besides, the TGI in the experiment on UO-31 renal turned out to be 3.37 µM; in the experiment on HT29 colon it was 4.81 µM; with A549 NSCLC, 3.96 µM; with COLO 205 colon, 3.08 µM.
Turning to `N#Cc1c2c(c(-c3cccs3)n(C3OC(CO)C(O)C(O)C3O)c1=S)CCc1ccccc1-2` (centres undefined), the TGI in the experiment on CAKI-1 renal, with OVCAR-8 ovarian, in the experiment on SK-MEL-5 melanoma, in the experiment on MDA-MB-231 breast, with OVCAR-3 ovarian and with SK-MEL-28 melanoma was greater than 100 µM in each case. For the same molecule, the TGI with UO-31 renal, in the experiment with HT29 colon, in the experiment on A549 NSCLC and in the experiment with COLO 205 colon was greater than 100 µM throughout. The GI50 in the experiment with SK-MEL-5 melanoma is 6.47 µM and 28.4 µM; with MDA-MB-231 breast it was 15.5 µM and 37.3 µM; in the experiment on HT29 colon it was 6.27 µM and > 20.9 µM; in the experiment with A549 NSCLC it was 20.9 µM and > 85.1 µM.
As to `C[N+](C)([O-])CCCNc1ccnc2cccc([N+](=O)[O-])c12`, the TGI is greater than 100 µM in the experiment with CAKI-1 renal; greater than 100 µM with OVCAR-8 ovarian; 33.4 µM with SK-MEL-5 melanoma; greater than 100 µM in the experiment with MDA-MB-231 breast; 44.9 µM in the experiment with OVCAR-3 ovarian; greater than 100 µM in the experiment on SK-MEL-28 melanoma. Moreover, the TGI was greater than 100 µM in the experiment on UO-31 renal, greater than 100 µM in the experiment on HT29 colon, greater than 100 µM with A549 NSCLC and 46.4 µM in the experiment with COLO 205 colon.
With `ClCC#CCSc1ncnc2c1ncn2CC#CCCl`, the GI50 in the experiment on CAKI-1 renal was 1.15 µM; with OVCAR-8 ovarian it was 1.78 µM; in the experiment with SK-MEL-5 melanoma, 1.29 µM; with MDA-MB-231 breast it was 1.5 µM; in the experiment on OVCAR-3 ovarian it was 1.51 µM; with SK-MEL-28 melanoma it was 1.61 µM. Besides, the GI50 in the experiment on UO-31 renal was 1.33 µM; with HT29 colon, 1.65 µM; with A549 NSCLC it was 1.76 µM; in the experiment with COLO 205 colon, 1.56 µM. Also, the TGI in the experiment with CAKI-1 renal was determined as 3.74 µM; in the experiment on OVCAR-8 ovarian, 5.24 µM; with SK-MEL-5 melanoma, 2.66 µM; with MDA-MB-231 breast it was 3.55 µM; in the experiment on OVCAR-3 ovarian, 2.95 µM; in the experiment with SK-MEL-28 melanoma, 3.14 µM. Also, the TGI in the experiment with UO-31 renal turned out to be 3.38 µM; with HT29 colon, 3.85 µM; with A549 NSCLC, 4.35 µM; with COLO 205 colon, 3.03 µM.
For the molecule `COc1c(N2CCN(Cn3c(O)c(N=NC(=O)c4ccncc4)c4cc(F)ccc43)C(C)C2)c(F)cc2c(=O)c(C(=O)O)cn(C3CC3)c12` (centres undefined), the GI50 is greater than 50 µM in the experiment on CAKI-1 renal; 34.8 µM in the experiment on OVCAR-8 ovarian; 16.6 µM in the experiment with SK-MEL-5 melanoma; 8.31 µM with MDA-MB-231 breast; 10.5 µM in the experiment on OVCAR-3 ovarian; greater than 50 µM in the experiment on SK-MEL-28 melanoma. For the same molecule, the GI50 with UO-31 renal, in the experiment on HT29 colon, with A549 NSCLC and in the experiment on COLO 205 colon was greater than 50 µM each time. Besides, the TGI with CAKI-1 renal is greater than 50 µM; in the experiment on OVCAR-8 ovarian, greater than 50 µM; with SK-MEL-5 melanoma, greater than 50 µM; in the experiment on MDA-MB-231 breast, 27.7 µM; in the experiment on OVCAR-3 ovarian, 23.8 µM; with SK-MEL-28 melanoma it was greater than 50 µM. The TGI in the experiment on UO-31 renal, in the experiment with HT29 colon, in the experiment on A549 NSCLC and in the experiment with COLO 205 colon was greater than 50 µM each time.

These data come from PubChem BioAssay (NCI).
